Test results as given in ChEMBL document CHEMBL4732047, “New imidazopyridines with phosphodiesterase 4 and 7 inhibitory activity and their efficacy in animal models of inflammatory and autoimmune diseases” (Eur J Med Chem, 2021).
pIC50: −log10 of the molar value. Active and inactive are the calls of the source. The rule behind the calls is not given here.

Columns and labels:
[1] = target: High affinity 3',5'-cyclic-AMP phosphodiesterase 7A (Homo sapiens, UniProt Q13946); assay: Inhibition of human recombinant PDE7A using cAMP as substrate incubated for 20 mins measured by Kinase Glo reagent based microplate reader assay
Sequence of High affinity 3',5'-cyclic-AMP phosphodiesterase 7A (Q13946 whole entry): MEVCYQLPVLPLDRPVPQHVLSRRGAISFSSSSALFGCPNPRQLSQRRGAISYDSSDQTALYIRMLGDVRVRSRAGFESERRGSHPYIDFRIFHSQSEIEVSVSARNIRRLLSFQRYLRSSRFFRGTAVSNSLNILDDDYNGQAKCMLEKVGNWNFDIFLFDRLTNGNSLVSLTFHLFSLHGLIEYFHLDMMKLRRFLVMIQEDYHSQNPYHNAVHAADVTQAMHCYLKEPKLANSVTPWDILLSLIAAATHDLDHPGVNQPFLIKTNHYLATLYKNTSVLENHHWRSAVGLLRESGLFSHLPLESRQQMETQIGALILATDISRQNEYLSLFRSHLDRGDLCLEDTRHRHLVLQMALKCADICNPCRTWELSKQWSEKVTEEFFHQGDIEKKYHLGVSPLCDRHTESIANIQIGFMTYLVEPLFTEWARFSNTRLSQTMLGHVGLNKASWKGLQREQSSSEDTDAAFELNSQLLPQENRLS

[2] = target: cGMP-dependent 3',5'-cyclic phosphodiesterase (Homo sapiens, UniProt O00408); assay: Inhibition of human recombinant PDE2A using cGMP as substrate incubated for 20 mins measured by Kinase Glo reagent based microplate reader assay
Sequence of cGMP-dependent 3',5'-cyclic phosphodiesterase (O00408 whole entry): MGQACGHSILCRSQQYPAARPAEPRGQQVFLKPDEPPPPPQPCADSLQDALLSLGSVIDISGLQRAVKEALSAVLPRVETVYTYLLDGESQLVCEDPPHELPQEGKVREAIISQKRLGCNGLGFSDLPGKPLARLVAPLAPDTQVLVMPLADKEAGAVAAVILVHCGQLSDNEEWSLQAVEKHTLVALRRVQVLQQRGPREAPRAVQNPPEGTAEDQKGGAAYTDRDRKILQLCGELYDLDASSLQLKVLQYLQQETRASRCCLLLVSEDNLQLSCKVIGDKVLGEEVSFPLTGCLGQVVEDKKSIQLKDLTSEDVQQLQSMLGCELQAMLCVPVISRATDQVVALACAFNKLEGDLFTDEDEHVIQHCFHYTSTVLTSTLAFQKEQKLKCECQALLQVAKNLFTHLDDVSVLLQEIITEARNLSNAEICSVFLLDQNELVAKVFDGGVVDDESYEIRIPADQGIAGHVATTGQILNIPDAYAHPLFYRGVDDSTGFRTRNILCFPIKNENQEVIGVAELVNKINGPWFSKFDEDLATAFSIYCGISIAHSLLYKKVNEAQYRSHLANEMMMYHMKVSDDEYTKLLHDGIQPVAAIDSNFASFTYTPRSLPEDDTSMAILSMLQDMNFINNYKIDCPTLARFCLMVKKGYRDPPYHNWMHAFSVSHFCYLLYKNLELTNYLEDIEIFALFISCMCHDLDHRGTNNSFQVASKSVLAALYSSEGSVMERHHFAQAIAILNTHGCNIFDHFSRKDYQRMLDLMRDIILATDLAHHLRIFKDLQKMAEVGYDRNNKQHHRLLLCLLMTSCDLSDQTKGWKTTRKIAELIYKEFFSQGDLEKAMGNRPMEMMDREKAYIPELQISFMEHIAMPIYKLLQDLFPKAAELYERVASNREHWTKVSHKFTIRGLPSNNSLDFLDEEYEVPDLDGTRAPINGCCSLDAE

[3] = target: 3',5'-cyclic-AMP phosphodiesterase 4B (Homo sapiens, UniProt Q07343); assay: Inhibition of human recombinant PDE4B using cAMP as substrate incubated for 20 mins measured by Kinase Glo reagent based microplate reader assay
Sequence of 3',5'-cyclic-AMP phosphodiesterase 4B (Q07343 whole entry): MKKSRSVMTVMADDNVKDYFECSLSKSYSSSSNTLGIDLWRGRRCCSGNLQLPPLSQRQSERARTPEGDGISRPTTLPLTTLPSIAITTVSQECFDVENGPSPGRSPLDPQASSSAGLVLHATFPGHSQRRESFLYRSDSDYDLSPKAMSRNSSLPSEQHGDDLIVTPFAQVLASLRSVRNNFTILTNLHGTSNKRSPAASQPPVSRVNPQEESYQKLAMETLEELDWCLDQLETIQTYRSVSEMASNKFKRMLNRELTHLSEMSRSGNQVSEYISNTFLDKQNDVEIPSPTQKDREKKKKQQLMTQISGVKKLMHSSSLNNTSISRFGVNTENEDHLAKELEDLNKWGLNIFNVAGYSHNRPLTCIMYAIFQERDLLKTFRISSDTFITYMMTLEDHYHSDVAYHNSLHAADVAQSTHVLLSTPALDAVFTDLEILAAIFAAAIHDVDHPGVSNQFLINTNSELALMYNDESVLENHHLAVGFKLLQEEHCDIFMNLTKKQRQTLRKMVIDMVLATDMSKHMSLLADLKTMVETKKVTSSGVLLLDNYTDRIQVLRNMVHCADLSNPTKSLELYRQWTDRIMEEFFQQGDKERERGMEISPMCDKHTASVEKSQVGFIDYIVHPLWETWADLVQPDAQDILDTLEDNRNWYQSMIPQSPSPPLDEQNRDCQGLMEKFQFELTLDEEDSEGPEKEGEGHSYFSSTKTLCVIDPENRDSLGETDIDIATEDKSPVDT

[4] = target: cAMP and cAMP-inhibited cGMP 3',5'-cyclic phosphodiesterase 10A (Homo sapiens, UniProt Q9Y233); assay: Inhibition of human recombinant PDE10A using cAMP as substrate incubated for 20 mins measured by Kinase Glo reagent based microplate reader assay
Sequence of cAMP and cAMP-inhibited cGMP 3',5'-cyclic phosphodiesterase 10A (Q9Y233 whole entry): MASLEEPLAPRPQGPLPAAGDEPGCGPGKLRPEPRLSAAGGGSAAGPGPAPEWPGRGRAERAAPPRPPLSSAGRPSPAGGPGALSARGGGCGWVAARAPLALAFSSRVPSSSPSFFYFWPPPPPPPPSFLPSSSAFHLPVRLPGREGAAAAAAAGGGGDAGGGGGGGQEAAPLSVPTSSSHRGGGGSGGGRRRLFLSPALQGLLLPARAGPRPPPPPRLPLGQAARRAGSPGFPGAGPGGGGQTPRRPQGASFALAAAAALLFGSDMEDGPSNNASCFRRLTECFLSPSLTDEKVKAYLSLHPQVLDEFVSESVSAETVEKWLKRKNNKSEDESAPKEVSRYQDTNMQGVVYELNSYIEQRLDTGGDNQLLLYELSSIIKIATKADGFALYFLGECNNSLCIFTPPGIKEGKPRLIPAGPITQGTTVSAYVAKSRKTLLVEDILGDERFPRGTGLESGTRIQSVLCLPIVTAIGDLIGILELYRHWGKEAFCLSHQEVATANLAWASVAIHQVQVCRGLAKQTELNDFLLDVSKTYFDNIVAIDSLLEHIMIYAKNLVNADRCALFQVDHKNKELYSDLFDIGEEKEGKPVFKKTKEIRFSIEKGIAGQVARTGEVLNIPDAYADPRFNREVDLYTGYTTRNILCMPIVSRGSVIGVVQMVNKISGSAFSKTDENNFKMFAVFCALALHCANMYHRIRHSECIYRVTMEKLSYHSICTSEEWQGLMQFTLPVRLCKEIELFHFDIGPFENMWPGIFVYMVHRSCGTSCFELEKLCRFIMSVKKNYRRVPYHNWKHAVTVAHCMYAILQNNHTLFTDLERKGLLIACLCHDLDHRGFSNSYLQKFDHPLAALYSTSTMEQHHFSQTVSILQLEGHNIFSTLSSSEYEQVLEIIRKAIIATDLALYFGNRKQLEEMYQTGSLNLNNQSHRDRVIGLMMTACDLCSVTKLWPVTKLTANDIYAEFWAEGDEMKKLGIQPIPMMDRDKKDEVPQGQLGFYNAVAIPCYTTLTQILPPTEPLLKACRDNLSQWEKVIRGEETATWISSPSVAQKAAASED

[5] = target: Dual specificity calcium/calmodulin-dependent 3',5'-cyclic nucleotide phosphodiesterase 1B (Homo sapiens, UniProt Q01064); assay: Inhibition of human recombinant PDE1B using cAMP as substrate incubated for 20 mins measured by Kinase Glo reagent based microplate reader assay
Sequence of Dual specificity calcium/calmodulin-dependent 3',5'-cyclic nucleotide phosphodiesterase 1B (Q01064 whole entry): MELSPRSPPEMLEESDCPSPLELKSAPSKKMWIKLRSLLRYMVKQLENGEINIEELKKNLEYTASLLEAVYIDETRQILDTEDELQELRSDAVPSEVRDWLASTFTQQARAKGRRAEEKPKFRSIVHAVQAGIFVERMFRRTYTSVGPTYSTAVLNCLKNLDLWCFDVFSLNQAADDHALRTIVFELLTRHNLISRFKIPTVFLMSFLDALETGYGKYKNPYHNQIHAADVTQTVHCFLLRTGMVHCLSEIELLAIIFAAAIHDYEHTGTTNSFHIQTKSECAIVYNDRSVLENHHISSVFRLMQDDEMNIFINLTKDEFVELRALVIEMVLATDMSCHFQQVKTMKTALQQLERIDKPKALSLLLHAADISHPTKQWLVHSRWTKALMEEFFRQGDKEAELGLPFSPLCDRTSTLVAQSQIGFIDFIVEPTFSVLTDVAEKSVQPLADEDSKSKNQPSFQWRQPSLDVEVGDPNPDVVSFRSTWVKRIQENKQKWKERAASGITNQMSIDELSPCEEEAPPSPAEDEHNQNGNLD

[6] = target: cGMP-inhibited 3',5'-cyclic phosphodiesterase 3A (Homo sapiens, UniProt Q14432); assay: Inhibition of human recombinant PDE3A using cAMP as substrate incubated for 20 mins measured by Kinase Glo reagent based microplate reader assay
Sequence of cGMP-inhibited 3',5'-cyclic phosphodiesterase 3A (Q14432 whole entry): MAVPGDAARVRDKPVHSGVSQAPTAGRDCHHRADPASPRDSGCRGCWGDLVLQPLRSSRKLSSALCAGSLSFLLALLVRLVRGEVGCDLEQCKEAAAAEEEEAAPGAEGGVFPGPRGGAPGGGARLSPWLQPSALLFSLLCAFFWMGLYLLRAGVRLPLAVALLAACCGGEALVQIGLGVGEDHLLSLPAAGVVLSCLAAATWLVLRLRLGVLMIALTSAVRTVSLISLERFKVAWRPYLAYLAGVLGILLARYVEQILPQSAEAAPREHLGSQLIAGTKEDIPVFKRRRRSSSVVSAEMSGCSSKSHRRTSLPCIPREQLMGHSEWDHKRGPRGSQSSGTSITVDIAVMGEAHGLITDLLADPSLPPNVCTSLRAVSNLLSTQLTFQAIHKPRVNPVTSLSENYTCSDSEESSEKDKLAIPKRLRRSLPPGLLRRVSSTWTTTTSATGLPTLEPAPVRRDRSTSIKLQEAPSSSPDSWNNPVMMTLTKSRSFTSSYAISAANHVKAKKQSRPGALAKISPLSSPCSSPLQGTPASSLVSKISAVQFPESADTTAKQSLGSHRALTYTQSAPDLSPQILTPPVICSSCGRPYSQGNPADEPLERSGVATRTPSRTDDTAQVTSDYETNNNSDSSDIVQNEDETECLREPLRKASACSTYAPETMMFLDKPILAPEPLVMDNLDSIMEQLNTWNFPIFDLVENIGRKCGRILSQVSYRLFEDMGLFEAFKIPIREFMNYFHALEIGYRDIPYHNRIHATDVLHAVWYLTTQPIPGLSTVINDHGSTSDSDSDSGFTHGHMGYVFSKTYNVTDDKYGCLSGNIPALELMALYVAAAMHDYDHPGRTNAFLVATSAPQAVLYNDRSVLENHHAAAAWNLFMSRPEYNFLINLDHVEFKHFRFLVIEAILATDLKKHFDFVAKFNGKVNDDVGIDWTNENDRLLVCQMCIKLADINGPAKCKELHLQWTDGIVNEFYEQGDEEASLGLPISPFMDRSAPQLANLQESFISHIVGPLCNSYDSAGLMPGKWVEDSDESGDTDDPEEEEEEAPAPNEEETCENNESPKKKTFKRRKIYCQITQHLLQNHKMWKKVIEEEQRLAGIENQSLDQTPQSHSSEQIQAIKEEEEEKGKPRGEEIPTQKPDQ

[7] = target: 3',5'-cyclic-AMP phosphodiesterase 4D (Homo sapiens, UniProt Q08499); assay: Inhibition of human recombinant PDE4D using cAMP as substrate incubated for 20 mins measured by Kinase Glo reagent based microplate reader assay
[8] = target: cGMP-specific 3',5'-cyclic phosphodiesterase (Homo sapiens, UniProt O76074); assay: Inhibition of human recombinant PDE5A using cGMP as substrate incubated for 20 mins measured by Kinase Glo reagent based microplate reader assay
Mus musculus = assay: Hepatoprotective activity in ConA-induced BALB/c hepatitis mouse model assessed as decrease in serum IL-6 level at 50 mg/kg, ip administration and measured after 8 hrs relative to control; assay type: functional, organism-based

Row | pIC50 [1] | pIC50 [3] | SMILES | other results
1 | 5.88 |  | Nc1nc(O)c2nc(Br)n(C3CCCc4cccc(Br)c43)c2n1 (stereo not drawn) | 
2 | < 3.70 | 4.72 | OCCCNc1nccc2c1nc(-c1ccco1)n2C1CCCC1 | 
3 | < 3.70 | 4.77 | CCCCCn1c(-c2ccccc2)nc2c(NCc3ccccc3)ccnc21 | 
4 | < 3.70 | < 3.70 | CCCCCn1c(-c2ccc([N+](=O)[O-])cc2)nc2c(N)ccnc21 | 
5 | 3.72 | 4.74 | COCCNc1nccc2c1nc(-c1ccco1)n2C1CCCC1 | 
6 | < 3.70 | 5.08 | CCCCCn1c(-c2ccco2)nc2c(NCc3ccccc3)nccc21 | 

Continued, molecule first:

Row | SMILES | pIC50 [1] | pIC50 [3] | other results
7 | CCCCCC[C@H]([C@H](C)O)n1cnc2c(N)ncnc21 [(+)-EHNA] |  |  | pIC50 [2]: 5.58
8 | CCCCCn1c(-c2ccccc2)nc2c(NCc3ccccc3)nccc21 | < 3.70 | 3.99 | 
9 | CCCCCn1c(-c2ccco2)nc2c(NCCCOC)nccc21 | 4.08 | 4.90 | 
10 | COCCCNc1nccc2c1nc(-c1ccco1)n2C1CCCC1 | 3.85 | 4.70 | 
11 | CCCCCn1c(-c2ccc(OC)cc2)nc2c(N)ccnc21 | < 3.70 | 4.38 | 
12 | COCCNc1ccnc2c1nc(-c1ccco1)n2C1CCCC1 | 3.93 | 5.27 | 
13 | CCCCCn1c(-c2ccco2)nc2c(N(C)CCCO)nccc21 | 5.14 | 5.46 | pIC50 [4]: 5.53; pIC50 [5]: 5.64; pIC50 [2]: 4.66; pIC50 [6]: 5.00; pIC50 [7]: 4.59; pIC50 [8]: 5.54; Activity (Mus musculus): inactive
14 | Cc1ccc([N+](=O)[O-])cc1S(=O)(=O)N(C)C | 5.63 |  | 
15 | CCCCCn1c(-c2ccccc2)nc2c(N)ccnc21 | < 3.70 | 4.54 | 
16 | c1coc(-c2nc3c(NCCc4cccs4)ccnc3n2C2CCCC2)c1 | < 3.70 | 5.49 | 
17 | Nc1ccnc2c1nc(-c1ccccc1)n2CCN1CCCCC1 | < 3.70 | 3.99 | 
